In ChEMBL document CHEMBL4680246, “Design, synthesis and biological evaluation of novel O-carbamoyl ferulamide derivatives as multi-target-directed ligands for the treatment of Alzheimer's disease” (Eur J Med Chem, 2020) one finds IC50, Ratio IC50 and inhibition data, which are given here for 18 compounds.

Test [1] concerns the target Cholinesterase (Homo sapiens, UniProt P06276). Description: Inhibition of human serum BuChE using acetylcholine iodide as substrate incubated for 15 mins by Ellman's method.
The target of test [2] is Cholinesterase (Equus caballus, UniProt P81908). Description: Inhibition of equine serum BuChE using BTC as substrate after 15 mins by Ellman's method.
Cholinesterase (Equus caballus, UniProt P81908), sequence (P81908 whole entry): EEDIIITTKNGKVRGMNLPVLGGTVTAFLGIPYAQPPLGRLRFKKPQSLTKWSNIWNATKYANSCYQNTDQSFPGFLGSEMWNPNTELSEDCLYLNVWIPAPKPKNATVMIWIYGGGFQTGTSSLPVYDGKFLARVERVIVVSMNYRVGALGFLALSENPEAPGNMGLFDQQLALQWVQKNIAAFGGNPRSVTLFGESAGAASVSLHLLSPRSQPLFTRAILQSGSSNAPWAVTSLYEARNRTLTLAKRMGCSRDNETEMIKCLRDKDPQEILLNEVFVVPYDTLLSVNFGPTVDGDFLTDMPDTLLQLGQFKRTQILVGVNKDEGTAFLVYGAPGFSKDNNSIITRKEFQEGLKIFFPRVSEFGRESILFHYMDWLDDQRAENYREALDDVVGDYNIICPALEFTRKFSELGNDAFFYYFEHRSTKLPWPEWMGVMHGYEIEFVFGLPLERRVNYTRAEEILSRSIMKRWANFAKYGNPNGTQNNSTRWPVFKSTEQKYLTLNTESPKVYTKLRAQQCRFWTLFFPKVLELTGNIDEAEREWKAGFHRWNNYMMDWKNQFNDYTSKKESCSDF
In test [3] the target is T1, Amine oxidase [flavin-containing] B (Homo sapiens, UniProt P27338).
T1 sequence (P27338 whole entry): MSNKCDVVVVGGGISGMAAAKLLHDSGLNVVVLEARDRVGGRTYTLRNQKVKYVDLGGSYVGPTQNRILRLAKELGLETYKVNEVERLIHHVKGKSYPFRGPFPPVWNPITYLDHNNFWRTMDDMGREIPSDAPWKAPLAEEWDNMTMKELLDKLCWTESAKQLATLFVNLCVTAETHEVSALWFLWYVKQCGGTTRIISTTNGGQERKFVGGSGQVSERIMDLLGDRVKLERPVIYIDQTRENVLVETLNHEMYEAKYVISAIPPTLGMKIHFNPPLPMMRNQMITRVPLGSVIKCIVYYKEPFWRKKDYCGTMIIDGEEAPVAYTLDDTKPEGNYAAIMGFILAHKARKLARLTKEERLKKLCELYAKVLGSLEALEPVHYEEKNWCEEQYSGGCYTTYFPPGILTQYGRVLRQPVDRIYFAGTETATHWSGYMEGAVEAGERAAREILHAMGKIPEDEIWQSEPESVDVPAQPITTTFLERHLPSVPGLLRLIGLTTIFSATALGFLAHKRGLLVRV
Description: Inhibition of recombinant human MAO-B.

For test [4], the target named is Acetylcholinesterase (Electrophorus electricus, UniProt O42275). Description: Inhibition of Electrophorus electricus AChE using acetylcholine iodide as substrate incubated for 15 mins by Ellman's method.
Acetylcholinesterase (Electrophorus electricus, UniProt O42275), sequence (O42275 whole entry): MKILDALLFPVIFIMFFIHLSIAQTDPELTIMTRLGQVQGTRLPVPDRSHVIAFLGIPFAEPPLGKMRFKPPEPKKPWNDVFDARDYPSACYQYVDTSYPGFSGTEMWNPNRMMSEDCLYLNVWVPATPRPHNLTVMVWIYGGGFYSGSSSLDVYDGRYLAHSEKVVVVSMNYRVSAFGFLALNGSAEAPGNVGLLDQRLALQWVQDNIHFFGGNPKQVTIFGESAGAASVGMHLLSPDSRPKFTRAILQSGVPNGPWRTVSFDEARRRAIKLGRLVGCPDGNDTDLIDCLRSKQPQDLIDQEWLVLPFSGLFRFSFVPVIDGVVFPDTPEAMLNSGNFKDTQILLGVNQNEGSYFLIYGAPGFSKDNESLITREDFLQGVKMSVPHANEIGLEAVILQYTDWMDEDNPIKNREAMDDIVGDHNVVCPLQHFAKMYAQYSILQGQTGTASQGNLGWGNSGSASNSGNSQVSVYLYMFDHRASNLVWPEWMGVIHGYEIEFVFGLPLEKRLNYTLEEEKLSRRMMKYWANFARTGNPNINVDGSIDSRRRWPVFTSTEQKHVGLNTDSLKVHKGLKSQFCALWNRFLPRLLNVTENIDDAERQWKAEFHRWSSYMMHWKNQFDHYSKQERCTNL
Test [5] concerns the target Acetylcholinesterase (Homo sapiens, UniProt P22303). Description: Inhibition of human erythrocytes AChE using acetylcholine iodide as substrate incubated for 15 mins by Ellman's method. (In Ellman's method for cholinesterases, released thiocholine reacts with DTNB.)
The species entered for test [6] is Homo sapiens. Description: Selectivity index, ratio of IC50 for human erythrocytes Ache to IC50 for human serum BuChe.
For test [7], the target named is Amyloid-beta precursor protein (Homo sapiens) (UniProt P05067). Description: Inhibition of self-induced Amyloid beta (1 to 42 residues) (unknown origin) aggregation at 25 uM measured after 24 hrs by thioflavin T-based fluorimetric assay relative to control.
Amyloid-beta precursor protein (Homo sapiens), sequence (P05067 whole entry, the tested form may be a part): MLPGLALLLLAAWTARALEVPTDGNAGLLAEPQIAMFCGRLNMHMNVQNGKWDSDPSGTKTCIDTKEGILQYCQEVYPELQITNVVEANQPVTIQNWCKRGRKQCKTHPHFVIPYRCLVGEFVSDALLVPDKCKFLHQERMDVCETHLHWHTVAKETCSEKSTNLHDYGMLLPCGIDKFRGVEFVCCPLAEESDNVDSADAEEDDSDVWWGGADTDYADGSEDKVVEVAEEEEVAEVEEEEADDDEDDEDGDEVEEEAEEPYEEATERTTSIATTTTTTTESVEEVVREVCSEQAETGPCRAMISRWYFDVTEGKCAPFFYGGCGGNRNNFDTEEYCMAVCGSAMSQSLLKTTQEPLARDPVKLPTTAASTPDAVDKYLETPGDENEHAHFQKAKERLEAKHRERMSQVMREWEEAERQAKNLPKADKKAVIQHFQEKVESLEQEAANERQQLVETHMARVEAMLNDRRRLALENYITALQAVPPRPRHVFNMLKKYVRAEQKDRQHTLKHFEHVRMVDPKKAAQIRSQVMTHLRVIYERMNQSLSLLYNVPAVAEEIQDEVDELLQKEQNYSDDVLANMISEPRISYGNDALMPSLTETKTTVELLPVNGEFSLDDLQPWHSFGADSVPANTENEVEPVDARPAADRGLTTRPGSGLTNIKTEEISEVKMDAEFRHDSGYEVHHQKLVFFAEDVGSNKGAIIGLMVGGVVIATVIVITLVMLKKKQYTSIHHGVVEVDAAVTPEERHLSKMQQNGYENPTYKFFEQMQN
A short description of test [8]: Selectivity index, ratio of IC50 for Electrophorus electricus AChE to IC50 for equine serum BuChE.
For test [9], the species on record is Homo sapiens. Description: Selectivity index, ratio of IC50 for recombinant human MAO-A to IC50 for recombinant human MAO-B.
For test [10], the target named is T2, Amine oxidase [flavin-containing] A (Homo sapiens, UniProt P21397).
T2 sequence (P21397 whole entry): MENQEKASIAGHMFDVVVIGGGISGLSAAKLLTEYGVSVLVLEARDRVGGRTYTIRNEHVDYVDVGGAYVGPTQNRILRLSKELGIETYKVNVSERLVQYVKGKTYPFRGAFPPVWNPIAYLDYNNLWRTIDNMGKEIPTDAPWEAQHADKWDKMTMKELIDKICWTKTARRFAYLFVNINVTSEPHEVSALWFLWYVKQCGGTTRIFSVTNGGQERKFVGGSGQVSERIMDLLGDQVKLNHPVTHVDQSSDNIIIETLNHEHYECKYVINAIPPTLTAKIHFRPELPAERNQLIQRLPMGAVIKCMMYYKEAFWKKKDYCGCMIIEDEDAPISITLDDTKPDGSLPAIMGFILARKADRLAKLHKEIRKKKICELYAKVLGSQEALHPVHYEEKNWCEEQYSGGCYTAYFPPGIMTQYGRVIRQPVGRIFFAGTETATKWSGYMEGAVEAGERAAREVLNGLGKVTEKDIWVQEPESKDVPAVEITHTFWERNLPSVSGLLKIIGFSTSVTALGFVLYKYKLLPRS
Description: Inhibition of recombinant human MAO-A.

SMILES strings stand for the structures. Where only a bound is given, the exact number is not on record here.

Acetylcholinesterase (Homo sapiens, UniProt P22303), sequence (P22303 whole entry): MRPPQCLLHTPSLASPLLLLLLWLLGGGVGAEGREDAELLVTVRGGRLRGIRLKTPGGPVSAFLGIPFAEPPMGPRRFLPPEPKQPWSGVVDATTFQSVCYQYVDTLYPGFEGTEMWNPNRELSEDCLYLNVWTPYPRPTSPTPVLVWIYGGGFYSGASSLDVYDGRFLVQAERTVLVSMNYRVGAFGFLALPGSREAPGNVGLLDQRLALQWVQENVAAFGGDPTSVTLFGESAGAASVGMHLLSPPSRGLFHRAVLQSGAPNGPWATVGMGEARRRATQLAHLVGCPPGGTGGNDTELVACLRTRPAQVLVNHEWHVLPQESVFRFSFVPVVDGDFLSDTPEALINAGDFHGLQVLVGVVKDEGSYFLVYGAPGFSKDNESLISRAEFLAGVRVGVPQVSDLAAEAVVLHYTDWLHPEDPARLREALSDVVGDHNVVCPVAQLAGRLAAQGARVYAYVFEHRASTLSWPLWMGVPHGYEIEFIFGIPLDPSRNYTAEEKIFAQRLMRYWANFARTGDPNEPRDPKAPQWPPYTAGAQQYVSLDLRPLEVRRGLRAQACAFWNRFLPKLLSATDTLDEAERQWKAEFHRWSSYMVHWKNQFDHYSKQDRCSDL
Cholinesterase (Homo sapiens, UniProt P06276), sequence (P06276 whole entry): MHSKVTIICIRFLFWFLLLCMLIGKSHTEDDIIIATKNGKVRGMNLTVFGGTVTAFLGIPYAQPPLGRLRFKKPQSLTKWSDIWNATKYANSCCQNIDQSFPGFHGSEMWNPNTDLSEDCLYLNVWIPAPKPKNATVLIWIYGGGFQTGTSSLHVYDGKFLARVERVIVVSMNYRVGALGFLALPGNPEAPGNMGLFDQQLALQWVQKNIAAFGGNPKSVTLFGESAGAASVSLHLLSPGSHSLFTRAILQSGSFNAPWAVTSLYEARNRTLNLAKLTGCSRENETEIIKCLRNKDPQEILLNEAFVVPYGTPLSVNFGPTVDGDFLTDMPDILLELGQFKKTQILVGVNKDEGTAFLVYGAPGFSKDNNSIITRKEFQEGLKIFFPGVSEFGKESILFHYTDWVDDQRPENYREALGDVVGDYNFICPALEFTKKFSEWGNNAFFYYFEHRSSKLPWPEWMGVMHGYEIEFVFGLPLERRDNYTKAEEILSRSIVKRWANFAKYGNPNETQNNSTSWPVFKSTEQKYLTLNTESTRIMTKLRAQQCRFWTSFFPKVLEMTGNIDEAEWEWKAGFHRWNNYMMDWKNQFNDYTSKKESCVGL

As to `CCN(C)C(=O)Oc1ccc(/C=C/C(=O)N2CCc3ccccc3C2)cc1`, the concentration for half-maximal inhibition (IC50) (in general, the concentration that gives 50% inhibition) was found to be 3.7 µM on Cholinesterase [1]; 3.8 µM against Cholinesterase [2]; 8.3 µM in test [3]; 17.7 µM against Acetylcholinesterase [4]; 6.8 µM against Acetylcholinesterase [5]; 97.3 µM in [10]. Further, the Ratio IC50 in the test listed under Homo sapiens [6] stood at 1.8; in test [8] it was 4.7; in the test filed under Homo sapiens [9], 11.7. The inhibition – broadly, how much of the control response was suppressed – in test [7] came out at 52.9%.

In the case of `CCN(C)C(=O)Oc1ccc(/C=C/C(=O)N2CCN(Cc3ccccc3)CC2)cc1`, the IC50 is 29.7 µM against Cholinesterase [1]; 20.3 µM at Cholinesterase [2]; 21.3 µM in [3]; 25.6 µM on Acetylcholinesterase [4]; 14.8 µM against Acetylcholinesterase [5]; 9.8 µM in [10]. Also, the Ratio IC50 came out at 0.5 in the test listed under Homo sapiens [6], 1.3 in test [8] and 0.5 in the test filed under Homo sapiens [9].

For the compound `COc1cc(/C=C/C(=O)N2CCc3ccccc3C2)ccc1OC(=O)N(c1ccccc1)c1ccccc1`, the IC50 against Cholinesterase [1] was 25.8 µM; on Cholinesterase [2] it was 23.9 µM; in test [3], 12.2 µM; on Acetylcholinesterase [4], 93.2 µM; against Acetylcholinesterase [5] it was 30.5 µM; in test [10], 16.9 µM. In addition, the Ratio IC50 in the test filed under Homo sapiens [6] stood at 1.2; in the test filed under Homo sapiens [9], 1.4.

As for `CCN(C)C(=O)Oc1ccc(/C=C/C(=O)N2CCC(Cc3ccccc3)CC2)cc1OC`, the IC50 at Cholinesterase [1] turned out to be 6.5 µM; at Cholinesterase [2], 3.9 µM; in test [3], 7.52 µM; against Acetylcholinesterase [4], 15.1 µM; at Acetylcholinesterase [5], 17.3 µM; in [10] it was 7.9 µM. Also, the Ratio IC50 in the test listed under Homo sapiens [6] was determined as 2.7; in test [8] it was 3.9; in the test filed under Homo sapiens [9] it was 1.1. The inhibition in test [7] was 53.7%.

As for `CCN(CC)C(=O)/C=C/c1ccc(OC(=O)N(C)C)c(OC)c1`, the IC50 against Cholinesterase [1] is 15.2 µM; on Cholinesterase [2] it was 19.2 µM; in test [3], 31.8 µM; against Acetylcholinesterase [4] it was 17.8 µM; against Acetylcholinesterase [5], 13.1 µM; in test [10], 30.9 µM. In addition, the Ratio IC50 in the test listed under Homo sapiens [6] was determined as 0.86; in test [8], 0.93; in the test filed under Homo sapiens [9] it was 0.97.

`COc1cc(/C=C/C(=O)N2CCc3ccccc3C2)ccc1OC(=O)N(C)C`: the concentration for half-maximal inhibition (IC50) turned out to be 9.5 µM against Cholinesterase [1]; 3.7 µM on Cholinesterase [2]; 9.8 µM in [3]; 26.8 µM at Acetylcholinesterase [4]; 17.9 µM against Acetylcholinesterase [5]; 35.7 µM in [10]. In addition, the Ratio IC50 was 1.9 in the test listed under Homo sapiens [6], 7.2 in [8] and 3.6 in the test listed under Homo sapiens [9].

With `COc1cc(/C=C/C(=O)N2CCN(Cc3ccccc3)CC2)ccc1OC(=O)N(C)C`, the IC50 against Cholinesterase [1] was 14.2 µM; against Cholinesterase [2], 12.1 µM; in [3] it was 16.7 µM; against Acetylcholinesterase [4], 22.7 µM; at Acetylcholinesterase [5], 23.5 µM; in test [10], 39.1 µM. Further, the Ratio IC50 in the test listed under Homo sapiens [6] worked out at 1.7; in test [8], 1.9; in the test listed under Homo sapiens [9] it was 2.3.

For `CCN(C)C(=O)Oc1ccc(/C=C/C(=O)N(CC)Cc2ccccc2)cc1OC`, the IC50 at Cholinesterase [1] turned out to be 3.8 µM; on Cholinesterase [2] it was 1.5 µM; in test [3] it was 9.5 µM; on Acetylcholinesterase [4], 19.5 µM; at Acetylcholinesterase [5] it was 20.7 µM; in [10], 14.1 µM. In addition, the Ratio IC50 came out at 5.4 in the test filed under Homo sapiens [6], 13 in [8] and 1.5 in the test listed under Homo sapiens [9]. The inhibition in test [7] was 50.7%.

Turning to `COc1cc(/C=C/C(=O)N2CCc3ccccc3C2)ccc1OC(=O)N(C)OC`, the IC50 against Cholinesterase [1] amounted to 16.2 µM; against Cholinesterase [2], 29.2 µM; in [3] it was 6.8 µM; on Acetylcholinesterase [4], 11.8 µM; against Acetylcholinesterase [5] it was 12.3 µM; in test [10] it was 22.2 µM. Also, the Ratio IC50 amounted to 0.76 in the test listed under Homo sapiens [6], 0.4 in [8] and 3.3 in the test filed under Homo sapiens [9].

As for `CCN(Cc1ccccc1)C(=O)/C=C/c1ccc(OC(=O)N(c2ccccc2)c2ccccc2)c(OC)c1`, the IC50 on Cholinesterase [1] was 25.3 µM; at Cholinesterase [2], 24.6 µM; in [3] it was 15.9 µM; against Acetylcholinesterase [4] it was 18.9 µM; against Acetylcholinesterase [5] it was 28.1 µM; in [10], 24.6 µM. The Ratio IC50 in the test filed under Homo sapiens [6] came to 1.1; in [8], 0.77; in the test filed under Homo sapiens [9], 1.5.

`COc1cc(/C=C/C(=O)N2CCCCC2)ccc1OC(=O)N(C)C`: the IC50 on Cholinesterase [1] was 13.1 µM; against Cholinesterase [2], 26.3 µM; in test [3], 32.5 µM; against Acetylcholinesterase [4] it was 17.5 µM; against Acetylcholinesterase [5], 9.1 µM; in [10] it was 33.3 µM. The Ratio IC50 was determined as 0.69 in the test listed under Homo sapiens [6], 0.67 in test [8] and 1 in the test listed under Homo sapiens [9].

On to `CCN(C)C(=O)Oc1ccc(/C=C/C(=O)N2CCCCC2)cc1OC`, for which the 50% inhibitory concentration (IC50) was 12.6 µM on Cholinesterase [1]; 19.6 µM against Cholinesterase [2]; 16.3 µM in test [3]; 15.3 µM on Acetylcholinesterase [4]; 10.7 µM against Acetylcholinesterase [5]; 29.6 µM in test [10]. The Ratio IC50 came to 0.85 in the test filed under Homo sapiens [6], 0.78 in test [8] and 1.8 in the test listed under Homo sapiens [9].

On to `CCN(CC)C(=O)Oc1ccc(/C=C/C(=O)N2CCc3ccccc3C2)cc1OC`, for which the IC50 came to 7.7 µM on Cholinesterase [1]; 2 µM on Cholinesterase [2]; 6.6 µM in [3]; 13.6 µM at Acetylcholinesterase [4]; 15.7 µM against Acetylcholinesterase [5]; 8 µM in [10]. The Ratio IC50 was 2 in the test listed under Homo sapiens [6], 6.8 in test [8] and 1.2 in the test filed under Homo sapiens [9].

Take `CCN(CC)C(=O)Oc1ccc(/C=C/C(=O)N2CCN(Cc3ccccc3)CC2)cc1OC`: the IC50 against Cholinesterase [1] came out at 10.6 µM; against Cholinesterase [2], 8.7 µM; in test [3], 23.2 µM; against Acetylcholinesterase [4], 19.2 µM; against Acetylcholinesterase [5], 16.8 µM; in test [10] it was 19.7 µM. Also, the Ratio IC50 amounted to 1.6 in the test listed under Homo sapiens [6], 2.2 in test [8] and 0.8 in the test listed under Homo sapiens [9].

Regarding `CCN(CC)C(=O)Oc1ccc(/C=C/C(=O)N2CCC(Cc3ccccc3)CC2)cc1OC`, the IC50 on Cholinesterase [1] stood at 5.1 µM; on Cholinesterase [2], 2.8 µM; in test [3], 5.13 µM; on Acetylcholinesterase [4], 25.6 µM; against Acetylcholinesterase [5], 19.7 µM; in [10] it was 7.8 µM. In addition, the Ratio IC50 is 3.9 in the test filed under Homo sapiens [6], 9.1 in [8] and 1.5 in the test listed under Homo sapiens [9]. The same compound displayed an inhibition in test [7] of 49.7%.

Turning to `COc1cc(/C=C/C(=O)O)ccc1O` [FERULATE], the IC50 against Cholinesterase [1], against Cholinesterase [2], against Acetylcholinesterase [4] and on Acetylcholinesterase [5] was above 100 µM each time.

As to `CCN(C)C(=O)Oc1ccc(/C=C/C(=O)N2CCC(Cc3ccccc3)CC2)cc1`, the IC50 was found to be 5.6 µM against Cholinesterase [1]; 5.3 µM against Cholinesterase [2]; 7.8 µM in [3]; 22.1 µM against Acetylcholinesterase [4]; 27.1 µM against Acetylcholinesterase [5]; 56.8 µM in test [10]. Further, the Ratio IC50 in the test filed under Homo sapiens [6] came to 4.8; in [8] it was 4.2; in the test listed under Homo sapiens [9], 7.3. In test [7], the inhibition came out at 48.1%.

For the compound `COc1cc(/C=C/C(=O)N2CCC(Cc3ccccc3)CC2)ccc1OC(=O)N(C)C`, the IC50 is 7.6 µM against Cholinesterase [1]; 1.3 µM against Cholinesterase [2]; 8.9 µM in test [3]; 18.9 µM against Acetylcholinesterase [4]; 16.6 µM against Acetylcholinesterase [5]; 16.3 µM in [10]. For the same compound, the Ratio IC50 in the test listed under Homo sapiens [6] came to 2.2; in [8] it was 14.5; in the test listed under Homo sapiens [9], 1.8. In test [7], the inhibition stood at 56.6%.
